Tests used:
[1] = tested on: Matrix Metalloprotease 9 (MMP-9) activity in HTR8/SVneo cells; assay: TNF-α-induced MMP-9 activity (zymography); format: cell-based; details: for reduction of TNFα-induced MMP-9 activity compared to stimulated controls: MPA pre-treatment
From the text: FIGS. 4A-4C show the effect of knocking down PGRMC1 expression on the efficacy of medroxyprogesterone acetate (MPA) pretreatment in HTR8/SVneo cells.
(§1) Progesterone treatment also blunted TNF α-mediated induction of metalloproteinase 9 (MMP-9) activity (data not shown).
The inhibitory effect of MPA pre-treatment on TNFα-induced activity was diminished when compared to cells treated with the scramble siRNA group (see FIGS. 4B&4C). […] However, in the PGRMC1 siRNA group this effect was lost with MPA pre-treatment reducing MMP-9 activity to a lesser degree when compared with stimulated controls (15%, p=0.100). Both the unstimulated (vehicle) control and the MPA groups are shown in the zymogram. The relative MMP-9 activity represents activity in excess of baseline for each experimental group. The unstimulated (vehicle) control only is represented graphically for both siRNA treatments. Experiments were replicated on 5 separate occasions. Data are mean+standard error of the mean.

[2] = women with a history of spontaneous preterm birth; weekly intramuscular injection; cited from earlier work
[3] = women at risk based on shortened cervical length; vaginal; cited from earlier work
[4] = biological target: PGRMC1 (Homo sapiens, UniProt O00264); details: cited from earlier work
[5] = tested on: caspase 3 cleavage; assay: Caspase 3 cleavage following treatment with calcimycin; format: cell-based; details: data not shown
[6] = tested on: HTR8/Sv cells; assay: Calcimycin-induced apoptotic cell death, CELLTITER 96 Aqueous Non-Radioactive Cell Proliferation Assay; format: cell-based; details: pretreatment of HTR8/Sv cells; FIG. 1
From the text: FIGS. 1A-1B are A) Western blot and B) graph showing calcium-induced cytrotrophoblast apoptotic cell death reduction by progesterone (R5020) pretreatment.
as §1

Chain of PGRMC1 (O00264 whole entry): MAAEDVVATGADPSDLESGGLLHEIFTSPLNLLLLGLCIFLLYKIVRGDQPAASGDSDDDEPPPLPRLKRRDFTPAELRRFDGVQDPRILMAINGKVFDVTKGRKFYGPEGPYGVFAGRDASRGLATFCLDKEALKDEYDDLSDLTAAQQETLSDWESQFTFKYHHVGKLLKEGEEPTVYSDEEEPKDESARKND

CC(=O)O[C@]1(C(C)=O)CC[C@H]2[C@@H]3C[C@H](C)C4=CC(=O)CC[C@]4(C)[C@H]3CC[C@@]21C [MPA, medroxyprogesterone acetate]
reduction of TNFα-induced MMP-9 activity compared to stimulated controls ([1]; PGRMC1 siRNA group, p=0.100): 15%
reduction of TNFα-induced MMP-9 activity compared to stimulated controls ([1]; scramble siRNA group, p<0.008): 45%

CCCCCC(=O)O[C@]1(C(C)=O)CC[C@H]2[C@@H]3CCC4=CC(=O)CC[C@]4(C)[C@H]3CC[C@@]21C [17-OHPC, 17 alpha hydroxyprogesterone caproate]
reduction in preterm birth rates [2]: 35%

CC(=O)[C@H]1CC[C@H]2[C@@H]3CCC4=CC(=O)CC[C@]4(C)[C@H]3CC[C@]12C [Progesterone, progesterone]
reduction of the risk of preterm birth [3]: 45%
TNF α-mediated induction of MMP-9 activity ([1]; data not shown): blunted

CCC(=O)[C@@]1(C)CC[C@H]2[C@@H]3CCC4=CC(=O)CCC4=C3CC[C@@]21C [R5020]
binding to PGRMC1 [4]: high binding
caspase 3 cleavage following treatment with calcimycin [5]: lower caspase 3 cleavage
protection against calcium-ionophore calcimycin-induced apoptotic cell death [6]: protected the cells

— patent publication US20160003837A1, “BIOMARKERS FOR THE PREDICTION OF PRETERM BIRTH” (DUKE UNIVERSITY, priority 2013, published 2016)
